The target of this assay is T1, human S1P1 receptors (Homo sapiens, UniProt P21453).
T1 construct: host or cells: HEK293
Put plainly: S1P1R antagonist assay (fluorescent membrane potential dye, cAMP readout). In kind it is cell-based. Particulars: HEK293 cells expressing human S1P1 receptors and CNG channel; 500 nM NECA; S1P1R agonist 10 nM; 90 minutes; read-out: EC50 or IC50 value.

Our source for the IC50 values is patent US8791102B2, “Acetanilide sphingosine-1-phosphate receptor antagonists” (Exelixis, Inc., priority 2008, dated 2014).

pIC50: −log10 of the molar value.

T1 sequence (P21453 whole entry): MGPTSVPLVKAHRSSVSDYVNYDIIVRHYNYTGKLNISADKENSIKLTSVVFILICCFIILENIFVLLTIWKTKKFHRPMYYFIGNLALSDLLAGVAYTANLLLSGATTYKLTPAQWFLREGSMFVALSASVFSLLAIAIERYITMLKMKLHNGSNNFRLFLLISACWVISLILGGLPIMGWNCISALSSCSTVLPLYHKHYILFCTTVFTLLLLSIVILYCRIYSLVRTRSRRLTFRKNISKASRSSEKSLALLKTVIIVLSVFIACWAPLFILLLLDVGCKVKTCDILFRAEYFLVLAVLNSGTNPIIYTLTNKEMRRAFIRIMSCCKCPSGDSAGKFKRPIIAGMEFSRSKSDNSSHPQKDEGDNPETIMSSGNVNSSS

The pIC50 is −log10 of the IC50, conventionally taken in molar units. Take `O=C(NC(COCc1ccccc1)C(=O)Nc1ccc(Oc2ccccc2)cc1)c1cccnc1Oc1ccccc1` (stereo not drawn) [Compound 290, N-(2-oxo-1-{[(phenylmethyl)oxy]methyl}-2-{[4-(phenyloxy)phenyl]amino}ethyl)-2-(phenyloxy)pyridine-3-carboxamide]: the pIC50 was less than 6.00. Under `O=C(Cc1cc(Cl)ccc1F)NC(COCc1ccccc1)C(=O)Nc1ccc(Oc2ccccc2)cc1` (stereo not drawn) [Compound 192, 3-(benzyloxy)-2-(2-(5-chloro-2-fluorophenyl)acetamido)-N-(4-phenoxyphenyl)propanamide] stands 6.00 to 6.52. Regarding `O=C(CN1CCOCC1)N[C@@H](COCc1ccc(F)cc1)C(=O)Nc1ccc(Oc2ccc(F)cc2)cc1` [Compound 210, (S)-3-(4-fluorobenzyloxy)-N-(4-(4-fluorophenoxy)phenyl)-2-(2-morpholinoacetamido)propanamide], the pIC50 was not below 6.52. As for `CC(C)=CCC[C@H](C)CC(=O)N[C@@H](COCc1ccccc1)C(=O)Nc1ccc(Oc2ccc(F)cc2)cc1` [Compound 248, (S)—N—((S)-3-(benzyloxy)-1-(4-(4-fluorophenoxy)phenylamino)-1-oxopropan-2-yl)-3,7-dimethyloct-6-enamide], the pIC50 was 6.00 to 6.52. `O=C(CN1CCCC1)N[C@@H](COCc1ccccc1)C(=O)Nc1ccc(Oc2ccc(F)cc2)cc1` [Compound 215, (S)-3-(benzyloxy)-N-(4-(4-fluorophenoxy)phenyl)-2-(2-(pyrrolidin-1-yl)acetamido)propanamide]: the pIC50 was 6.00 to 6.52. For the compound `O=C(Nc1ccc(Oc2ccc(F)cc2)cc1)[C@@H]1C[C@@H](Cc2ccccc2F)CN1C(=O)Cn1cncn1` [Compound 106, (2S,4R)-1-(2-(1H-1,2,4-triazol-1-yl)acetyl)-4-(2-fluorobenzyl)-N-(4-(4-fluorophenoxy)phenyl)pyrrolidine-2-carboxamide], the pIC50 was not below 6.52. Consider `CC(=O)NC(COCc1ccccc1)C(=O)Nc1ccc(Oc2ccccc2)cc1` (stereo not drawn) [Compound 269, N-(2-oxo-1-{[(phenylmethyl)oxy]methyl}-2-{[4-(phenyloxy)phenyl]amino}ethyl)acetamide], for which the pIC50 was 6.00 to 6.52.

On to `Cc1cccc(C(=O)NC(COCc2ccccc2)C(=O)Nc2ccc(Oc3ccccc3)cc2)c1[N+](=O)[O-]` (stereo not drawn) [Compound 189, N-(3-(benzyloxy)-1-oxo-1-(4-phenoxyphenylamino)propan-2-yl)-3-methyl-2-nitrobenzamide], for which the pIC50 was 6.00 to 6.52. For the compound `CN(C)C(=O)CCC(=O)N1C[C@H](Cc2ccccc2)C[C@H]1C(=O)Nc1ccc(Oc2ccc(F)cc2)cc1` [Compound 89, (2S,4R)-4-benzyl-1-(4-(dimethylamino)-4-oxobutanoyl)-N-(4-(4-fluorophenoxy)phenyl)pyrrolidine-2-carboxamide], the pIC50 is not below 6.52.

On to `O=C(Nc1ccc(Oc2ccc(F)cc2)cc1)[C@@H]1C[C@@H](Cc2ccc(Cl)cc2)CN1C(=O)Cn1ccnn1` [Compound 228, (2S,4R)-1-(2-(1H-1,2,3-triazol-1-yl)acetyl)-4-(4-chlorobenzyl)-N-(4-(4-fluorophenoxy)phenyl)pyrrolidine-2-carboxamide], for which the pIC50 is not below 6.52. Take `COc1ccc(CCCC(=O)NC(COCc2ccccc2)C(=O)Nc2ccc(Oc3ccccc3)cc2)cc1OC` (stereo not drawn) [Compound 320, 4-[3,4-bis(methyloxy)phenyl]-N-(2-oxo-1-{[(phenylmethyl)oxy]methyl}-2-{[4-(phenyloxy)phenyl]amino}ethyl)butanamide]: the pIC50 was less than 6.00.

Consider `O=C(Cn1cncn1)N[C@@H](COCc1ccc(F)cc1)C(=O)Nc1ccc(Oc2ccc(F)cc2)cc1` [Compound 135, (S)-2-(2-(1H-1,2,4-triazol-1-yl)acetamido)-3-(4-fluorobenzyloxy)-N-(4-(4-fluorophenoxy)phenyl)propanamide], for which the pIC50 was not below 6.52. Under `CC(=O)OCC(=O)NC(COCc1ccccc1)C(=O)Nc1ccc(Oc2ccccc2)cc1` (stereo not drawn) [Compound 388, 2-oxo-2-[(2-oxo-1-{[(phenylmethyl)oxy]methyl}-2-{[4-(phenyloxy)phenyl]amino}ethyl)amino]ethyl acetate] stands less than 6.00; under `CC(=O)N[C@@H](COCc1ccccc1)c1nc2cc(Oc3ccc(F)cc3)ccc2[nH]1` [Compound 60, (R)—N-(2-(benzyloxy)-1-(5-(4-fluorophenoxy)-1H-benzo[d]imidazol-2-yl)ethyl)acetamide], less than 6.00; under `COc1cccc(CC(=O)NC(COCc2ccccc2)C(=O)Nc2ccc(Oc3ccccc3)cc2)c1` (stereo not drawn) [Compound 285, N-(2-oxo-1-{[(phenylmethyl)oxy]methyl}-2-{[4-(phenyloxy)phenyl]amino}ethyl)-3-methoxyphenylacetamide], less than 6.00.

Take `O=C(CN1CC=CC1)N[C@@H](COCc1ccccc1)C(=O)Nc1ccc(Oc2ccc(F)cc2)cc1` [Compound 214, (S)-3-(benzyloxy)-2-(2-(2,5-dihydro-1H-pyrrol-1-yl)acetamido)-N-(4-(4-fluorophenoxy)phenyl)propanamide]: the negative logarithm of the IC50 (pIC50) is not below 6.52.

Turning to `CCOCC(=O)NC(COCc1ccccc1)C(=O)Nc1ccc(Oc2ccccc2)cc1` (stereo not drawn) [Compound 338, N-(2-oxo-1-{[(phenylmethyl)oxy]methyl}-2-{[4-(phenyloxy)phenyl]amino}ethyl)-2-ethoxyacetamide], the pIC50 was less than 6.00.

Turning to `O=C(Cc1ccc(OCc2ccccc2)cc1)NC(COCc1ccccc1)C(=O)Nc1ccc(Oc2ccccc2)cc1` (stereo not drawn) [Compound 271, 4-benzyloxy-N-(2-oxo-1-{[(phenylmethyl)oxy]methyl}-2-{[4-(phenyloxy)phenyl]amino}ethyl)phenylacetamide], the negative logarithm of the IC50 (pIC50) was less than 6.00. Under `O=C(Cc1cncnc1)N[C@@H](COCc1ccccc1)C(=O)Nc1ccc(Oc2ccc(F)cc2)cc1` [Compound 250, (S)-3-(benzyloxy)-N-(4-(4-fluorophenoxy)phenyl)-2-(2-(pyrimidin-5-yl)acetamido)propanamide] stands not below 6.52. The figure for `CCCC(=O)NC(COCc1ccccc1)C(=O)Nc1ccc(Oc2ccccc2)cc1` (stereo not drawn) [Compound 273, N-(2-oxo-1-{[(phenylmethyl)oxy]methyl}-2-{[4-(phenyloxy)phenyl]amino}ethyl)butanamide] is less than 6.00. The figure for `O=C(Cc1cc(Cl)ccc1Cl)NC(COCc1ccccc1)C(=O)Nc1ccc(Oc2ccccc2)cc1` (stereo not drawn) [Compound 190, 3-(benzyloxy)-2-(2-(2,5-dichlorophenyl)acetamido)-N-(4-phenoxyphenyl)propanamide] is 6.00 to 6.52. With `COCCOCCOCC(=O)NC(COCc1ccccc1)C(=O)Nc1ccc(Oc2ccccc2)cc1` (stereo not drawn) [Compound 315, N-(2-oxo-1-{[(phenylmethyl)oxy]methyl}-2-{[4-(phenyloxy)phenyl]amino}ethyl)-2-[2-(methoxy)ethoxy]ethoxyacetamide], the pIC50 is less than 6.00. Take `COc1ccc(CCC(=O)NC(COCc2ccccc2)C(=O)Nc2ccc(Oc3ccccc3)cc2)cc1` (stereo not drawn) [Compound 304, N-(2-oxo-1-{[(phenylmethyl)oxy]methyl}-2-{[4-(phenyloxy)phenyl]amino}ethyl)-3-(4-methoxyphenyl)propanamide]: the pIC50 is less than 6.00. As to `CSc1ccc(C(=O)NC(COCc2ccccc2)C(=O)Nc2ccc(Oc3ccccc3)cc2)cc1` (stereo not drawn) [Compound 306, 4-(methylthio)-N-(2-oxo-1-{[(phenylmethyl)oxy]methyl}-2-{[4-(phenyloxy)phenyl]amino}ethyl)benzamide], the pIC50 was less than 6.00. As to `CC(=O)c1ccc(N2CCN(CC(=O)N[C@@H](COCc3ccccc3)C(=O)Nc3ccc(Oc4ccc(F)cc4)cc3)CC2)cc1` [Compound 229, (S)-2-(2-(4-(4-acetylphenyl)piperazin-1-yl)acetamido)-3-(benzyloxy)-N-(4-(4-fluorophenoxy)phenyl)propanamide], the pIC50 is 6.00 to 6.52. Consider `CC(C)N1CCN(CC(=O)N[C@@H](COCc2ccccc2)C(=O)Nc2ccc(Oc3ccc(F)cc3)cc2)CC1` [Compound 111, (S)-3-(benzyloxy)-N-(4-(4-fluorophenoxy)phenyl)-2-(2-(4-isopropylpiperazin-1-yl)acetamido)propanamide], for which the pIC50 is less than 6.00. For the compound `O=C(Cc1ccccc1Br)NC(COCc1ccccc1)C(=O)Nc1ccc(Oc2ccccc2)cc1` (stereo not drawn) [Compound 301, N-(2-oxo-1-{[(phenylmethyl)oxy]methyl}-2-{[4-(phenyloxy)phenyl]amino}ethyl)-2-bromophenylacetamide], the pIC50 is 6.00 to 6.52. The figure for `O=C(Cc1ccccn1)N[C@@H](COCc1ccccc1)C(=O)Nc1ccc(Oc2ccc(F)cc2)cc1` [Compound 246, (S)-3-(benzyloxy)-N-(4-(4-fluorophenoxy)phenyl)-2-(2-(pyridin-2-yl)acetamido)propanamide] is not below 6.52. For `CC(=O)CCCC(=O)NC(COCc1ccccc1)C(=O)Nc1ccc(Oc2ccccc2)cc1` (stereo not drawn) [Compound 310, 5-oxo-N-(2-oxo-1-{[(phenylmethyl)oxy]methyl}-2-{[4-(phenyloxy)phenyl]amino}ethyl)hexanamide], the pIC50 was less than 6.00. The figure for `CC(=O)CCC(=O)N1C[C@H](Cc2ccccc2)C[C@H]1C(=O)Nc1ccc(Oc2ccc(F)cc2)cc1` [Compound 123, (2S,4R)-4-benzyl-N-(4-(4-fluorophenoxy)phenyl)-1-(4-oxopentanoyl)pyrrolidine-2-carboxamide] is not below 6.52; for `C[C@@H]1CN(CC(=O)N[C@@H](COCc2ccccc2)C(=O)Nc2ccc(Oc3ccc(F)cc3)cc2)C[C@H](C)O1` [Compound 234, (S)-3-(benzyloxy)-2-(2-((2R,6S)-2,6-dimethylmorpholino)acetamido)-N-(4-(4-fluorophenoxy)phenyl)propanamide] it is 6.00 to 6.52; for `COc1cccc(C[C@@H]2C[C@@H](C(=O)Nc3ccc(Oc4ccc(F)cc4)cc3)N(C(=O)Cn3nccn3)C2)c1` [Compound 69, (2S,4R)-1-(2-(2H-1,2,3-triazol-2-yl)acetyl)-N-(4-(4-fluorophenoxy)phenyl)-4-(3-methoxybenzyl)pyrrolidine-2-carboxamide] it is not below 6.52. As to `O=C(Nc1ccc(Oc2ccc(F)cc2)cc1)[C@@H]1C[C@@H](CNCc2ccccc2)CN1C(=O)Cn1cncn1` [Compound 262, (2S,4S)-1-(2-(1H-1,2,4-triazol-1-yl)acetyl)-4-((benzylamino)methyl)-N-(4-(4-fluorophenoxy)phenyl)pyrrolidine-2-carboxamide], the pIC50 is 6.00 to 6.52.
